These are literature values, as cited in patent US20070031367A1, “Composition and method for neck skin firming” (priority 2004, published 2007).

Regarding `COc1cc(CNC(=O)CCCC/C=C/C(C)C)ccc1O` [Capsaicin, N-canillyl-8-methyl-6-(E)-noneamide], the “Solubility in fats, oils and alcohol” value (fats, oils and alcohol) is “very soluble”. Moreover, the Solubility in water result (water) is on record as “sparingly soluble”.
